Like-named read-outs stand apart in the source and are kept apart here.
Tests used:
[1] = system: MKN-45/Ubc-luc cells; assay: Proliferation assay (resazurin), MKN-45; type: cell-based; conditions: 72 hours incubation
[2] = system: MKN-45/Ubc-luc cells; assay: Reporter gene specificity control (Ubc-luciferase), MKN-45
[3] = system: NCI-H2052 Tet-On shYAP_2371 pLenti6 MCAT_Luc cells; assay: Proliferation assay (resazurin), NCI-H2052; type: cell-based; conditions: 72 hours incubation
Outline: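 The NCI-H2052 line carries a Tet-inducible shRNA against the YAP1 3′UTR and an MCAT luciferase reporter. The day after seeding, it received eleven 2-fold compound dilutions at 0.1% DMSO, and viability was read by resazurin fluorescence.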

[4] = system: NCI-H2052 Tet-On shYAP_2371 pLenti6 MCAT_Luc cells (YAP-dependent transcription); assay: YAP reporter gene activity assay (MCAT-luciferase), NCI-H2052; type: cell-based; conditions: 24 hours incubation, BrightGlo luminescence
Outline: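 Luminescence was read 5 min after BrightGlo, following 24 h at 37 °C of compound exposure (eleven 2-fold dilutions, DMSO normalized to 0.1%). Cells were NCI-H2052 with a YAP-responsive MCAT-luciferase and a Tet-inducible shRNA against YAP1 3′UTR. Cell-free background was removed, values were normalized to vehicle, and IC50 was fitted with four parameters.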

[5] = target: His-humanTEAD4 217-434 / N-biotinylated YAP 60-100 (Homo sapiens (Human), UniProt Q15561); assay: TR-FRET YAP-TEAD4 biochemical assay, alternative format; type: binding; conditions: alternative format, marked with star *); 5 nM His-humanTEAD4 217-434, 10 nM N-biotinylated YAP 60-100
Description: […] Compounds were dissolved at 10 mM in 100% DMSO and serial dilutions were made in 100% DMSO. The diluted compound solutions were incubated in white 384-well plates (Greiner Bio-One) for 1 h at room temperature with the above described mix. The final DMSO concentration present in the assay was 1%. […] The IC50 values were estimated by fitting the data by nonlinear fit regression (GraphPad Prism).

[6] = target: Avi-humanTEAD4 217-434 / Cy5 labeled humanYAP 60-100 (Homo sapiens (Human), UniProt Q15561); assay: TR-FRET YAP-TEAD4 in-vitro biochemical assay; type: binding; conditions: 1 nM Avi-humanTEAD4 217-434, 20 nM Cy5-humanYAP 60-100, 1 h room temperature
[7] = read-out: Reporter gene assay MKN-45 IC50, MKN-45/Ubc-luc cells (YAP deleted, specificity control), 24 hours incubation
[8] = Homo sapiens, MKN-45, 24 h, read-out: Reporter gene assay MKN-45 IC50 [μM], MKN-45/Ubc-luc cells (YAP deleted, specificity control), 24 hours incubation

Sequence of Avi-humanTEAD4 217-434 / Cy5 labeled humanYAP 60-100 (Q15561 217-434): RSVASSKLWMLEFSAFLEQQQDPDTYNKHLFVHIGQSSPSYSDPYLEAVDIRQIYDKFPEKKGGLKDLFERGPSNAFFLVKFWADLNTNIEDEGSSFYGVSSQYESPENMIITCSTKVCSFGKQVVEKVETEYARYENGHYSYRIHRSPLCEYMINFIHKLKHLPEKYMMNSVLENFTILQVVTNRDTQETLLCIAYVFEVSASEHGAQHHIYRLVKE
Sequence of His-humanTEAD4 217-434 / N-biotinylated YAP 60-100 (Q15561 217-434): as above

GI50 [1] [µM]	IC50 [2, 7] [µM]	GI50 [3] [µM]	IC50 [4] [µM]	IC50 [5] [µM]	GI50 ([1]; Homo sapiens) [µM]	IC50 [2, 8] [µM]	GI50 ([3]; Homo sapiens, NCI-H2052, 72 h) [µM]	IC50 ([4]; Homo sapiens, NCI-H2052, 24 h) [µM]	IC50 [6] [µM]	SMILES
> 13.3	> 20	0.366	0.239	0.018	–	–	–	–	–	NC(=O)c1cccc(F)c1-c1c(Cl)ccc2c1C[C@@](CN[C@H]1CC[C@H](C(N)=O)CC1)(c1ccccc1)O2 (relative stereo) [Example 138a, 2-((2S,4S)-2-((((Trans)-4-carbamoylcyclohexyl)amino)methyl)-5-chloro-2-phenyl-2,3-dihydrobenzofuran-4-yl)-3-fluorobenzamide]
–	–	–	–	–	> 10	> 10	0.1	0.096	0.005	CNC(=O)c1ccc(OCCO)c(F)c1-c1c(Cl)c(F)cc2c1C[C@](c1ccccc1)(C1CCN1)O2 (stereo partly drawn) [Example 149, 2-((2S,4S)-2-(Azetidin-2-yl)-5-chloro-6-fluoro-2-phenyl-2,3-dihydrobenzofuran-4-yl)-3-fluoro-4-(2-hydroxyethoxy)-N-methylbenzamide]
–	–	–	–	–	> 10	> 10	0.085	0.074	0.004	CNC(=O)c1ccc(OC[C@H](C)O)c(F)c1-c1c(Cl)c(F)cc2c1[C@H](C)[C@](c1ccccc1)(C1CCN1)O2 (stereo partly drawn) [Example 150, 2-((2S,3S,4S)-2-(Azetidin-2-yl)-5-chloro-6-fluoro-3-methyl-2-phenyl-2,3-dihydrobenzofuran-4-yl)-3-fluoro-4-((S)-2-hydroxypropoxy)-N-methylbenzamide]
–	–	–	–	–	> 10	> 10	0.107	0.107	0.004	COc1ccc(C(N)=O)c(-c2c(Cl)c(F)cc3c2[C@H](O)[C@](c2ccccc2)(C2CCCN2)O3)c1F (stereo partly drawn) [Example 164, 2-((2S,3S,4S)-5-chloro-6-fluoro-3-hydroxy-2-phenyl-2-(pyrrolidin-2-yl)-2,3-dihydrobenzofuran-4-yl)-3-fluoro-4-methoxybenzamide]
–	–	–	–	–	> 10	> 10	0.256	0.136	0.008	CO[C@H]1c2c(cc(F)c(Cl)c2-c2c(C(N)=O)ccc(OCCO)c2F)O[C@@]1(c1ccccc1)C1CCCN1 (stereo partly drawn) [Example 166, 2-((2S,3S,4S)-5-chloro-6-fluoro-3-methoxy-2-phenyl-2-(pyrrolidin-2-yl)-2,3-dihydrobenzofuran-4-yl)-3-fluoro-4-(2-hydroxyethoxy)benzamide]
–	–	–	–	–	> 10	> 10	0.082	0.058	0.01	C[C@H](O)COc1ccc(C(N)=O)c(-c2c(Cl)c(F)cc3c2[C@H](C)[C@](c2ccccc2)(C2CCCN2)O3)c1F (stereo partly drawn) [Example 167, 2-((2S,3S,4S)-5-chloro-6-fluoro-3-methyl-2-phenyl-2-(pyrrolidin-2-yl)-2,3-dihydrobenzofuran-4-yl)-3-fluoro-4-((S)-2-hydroxypropoxy)benzamide]
7	13	0.05	0.062	–	–	–	–	–	0.004	CNC(=O)c1ccc(OC)c(F)c1-c1c(Cl)c(F)cc2c1C[C@](c1ccccc1)([C@@H]1CCCN1)O2 [Example 175, 2-((2S,4S)-5-Chloro-6-fluoro-2-phenyl-2-((S)-pyrrolidin-2-yl)-2,3-dihydrobenzofuran-4-yl)-3-fluoro-4-methoxy-N-methylbenzamide]

The remaining lines, values behind:

SMILES	GI50 [1] [µM]	IC50 [2, 7] [µM]	GI50 [3] [µM]	IC50 [4] [µM]	IC50 [5] [µM]	GI50 ([1]; Homo sapiens) [µM]	IC50 [2, 8] [µM]	GI50 ([3]; Homo sapiens, NCI-H2052, 72 h) [µM]	IC50 ([4]; Homo sapiens, NCI-H2052, 24 h) [µM]	IC50 [6] [µM]
NC(=O)c1cccc(F)c1-c1c(Cl)ccc2c1C[C@@](CN[C@H]1CC[C@@H](C(N)=O)CC1)(c1ccccc1)O2 (relative stereo) [Example 138b, 2-((2S,4S)-2-((((cis)-4-carbamoylcyclohexyl)amino)methyl)-5-chloro-2-phenyl-2,3-dihydrobenzofuran-4-yl)-3-fluorobenzamide]	> 10	7.63	0.435	0.221	0.018	–	–	–	–	–
NC[C@@]1(c2ccccc2)Cc2c(cc(F)c(Cl)c2-c2c(F)cccc2C(N)=O)O1 [Example 32a, 2-((2S,4S)-2-(Aminomethyl)-5-chloro-6-fluoro-2-phenyl-2,3-dihydrobenzofuran-4-yl)-3-fluorobenzamide]	–	–	–	–	0.033	6.12	> 10	0.833	0.498	–
C[C@H](O)COc1ccc(C(N)=O)c(-c2c(Cl)c(F)cc3c2C[C@](c2ccccc2)(C2CC(C)(O)CN2)O3)c1F (stereo partly drawn) [Example 159, 2-((2S,4S)-5-Chloro-6-fluoro-2-(4-hydroxy-4-methylpyrrolidin-2-yl)-2-phenyl-2,3-dihydrobenzofuran-4-yl)-3-fluoro-4-((S)-2-hydroxypropoxy)benzamide]	–	–	–	–	–	> 15	> 15	0.856	1.06	0.122
COc1ccc(C(N)=O)c(-c2c(Cl)c(F)cc3c2[C@H](OC)[C@](c2ccccc2)(C2CCCN2)O3)c1F (stereo partly drawn) [Example 165, 2-((2S,3S,4S)-5-chloro-6-fluoro-3-methoxy-2-phenyl-2-(pyrrolidin-2-yl)-2,3-dihydrobenzofuran-4-yl)-3-fluoro-4-methoxybenzamide]	–	–	–	–	–	> 10	> 10	0.131	0.082	0.005
COc1ccc(C(N)=O)c(-c2c(Cl)ccc3c2C[C@](c2ccccc2)(C(C)N)O3)c1F (stereo partly drawn) [Example 168, 2-((2S,4S)-2-(1-Aminoethyl)-5-chloro-2-phenyl-2,3-dihydrobenzofuran-4-yl)-3-fluoro-4-methoxybenzamide]	–	–	–	–	–	> 10	> 10	0.267	0.253	0.012
COCCOc1ccc(C(N)=O)c(-c2c(Cl)c(F)cc3c2[C@H](C)[C@](c2ccccc2)(C(C)N)O3)c1F (stereo partly drawn) [Example 169, 2-((2S,3S,4S)-2-(1-Aminoethyl)-5-chloro-6-fluoro-3-methyl-2-phenyl-2,3-dihydrobenzofuran-4-yl)-3-fluoro-4-(2-methoxyethoxy)benzamide]	–	–	–	–	–	7.83	> 10	0.246	0.153	0.007
COc1ccc(C(N)=O)c(-c2c(Cl)c(F)cc3c2C[C@](c2ccccc2)([C@@H]2CCCN2)O3)c1F [Example 174, 2-((2S,4S)-5-Chloro-6-fluoro-2-phenyl-2-((S)-pyrrolidin-2-yl)-2,3-dihydrobenzofuran-4-yl)-3-fluoro-4-methoxybenzamide]	11	12	0.021	0.037	–	–	–	–	–	0.003
COc1ccc(C(N)=O)c(-c2c(Cl)c(F)cc3c2[C@H](C)[C@@](CN)(c2ccccc2)O3)c1F [Example 176, 2-((2S,3S,4S)-2-(Aminomethyl)-5-chloro-6-fluoro-3-methyl-2-phenyl-2,3-dihydrobenzofuran-4-yl)-3-fluoro-4-methoxybenzamide]	16	11	0.021	0.018	–	–	–	–	–	0.003
